{
  "source": "patent US20230048888A1",
  "about": "“USE OF TRIAZOLOTRIAZINE DERIVATIVE IN TREATMENT OF DISEASES” (ZHEJIANG VIMGREEN PHARMACEUTICALS, LTD., priority 2019, published 2023)",
  "assay": "Pharmacokinetics of acetate of Compound 22 in SD rats with single and repeated administration",
  "format": "in vivo",
  "details": "Sprague-Dawley, rat, plasma; for half-life: read-out: T1/2 (converted); for Tmax: read-out: Tmax (median); for AUC(0-t): read-out: AUC0-t; for Cmax: read-out: Cmax",
  "method": "The formulation for Group 5 was prepared before administration on Day 1, and then, divided into daily doses and stored at 5±3° C. After taking out the formulations on the day of administration, the formulations should be let stand at room temperature for at least 30 minutes before administration.\nAfter blood collection, the blood collection tube containing the anticoagulant was turned upside down several times to mix well, and placed on wet ice before centrifugation. Within 60 minutes after blood collection, the samples were centrifuged at 2000 g for 10 minutes at 2-8° C. to separate red blood cells, thereby obtaining plasma samples. The plasma samples were transferred to cryovials and stored at −75±15° C. until analysis.\nBlood samples were collected from SD rats at room temperature before administration and within 24 hours after administration. All collected samples were placed on wet ice before centrifugation and stored at −75±15° C. until analysis.\nThe mass spectrometer was Applied Biosystems/AB Sciex Triple Quad 4500.\nPharmacokinetic data was calculated using the linear logarithmic trapezoidal method, with a weight of 1/(Y*Y). Samples with the sample concentration below the lower limit of quantification were excluded from the calculation of pharmacokinetic parameters. […] The mean time to peak (Tmax) was represented as a median.",
  "key": {"[1]": {"details": "both sexes, po, 63 mg/kg, Group 5 PO 63 mg/kg repeated, Day 1, Overall"}, "[2]": {"details": "both sexes, po, 63 mg/kg, Group 5 PO 63 mg/kg repeated, Day 7, Overall"}, "[3]": {"details": "both sexes, po, 189 mg/kg, Group 4 PO 189 mg/kg single, Overall"}, "[4]": {"details": "female, iv, 2 mg/kg, Group 1 IV 2.0 mg/kg single, Female"}, "[5]": {"details": "female, po, 21 mg/kg, Group 2 PO 21 mg/kg single, Female"}, "[6]": {"details": "female, po, 63 mg/kg, Group 3 PO 63 mg/kg single, Female"}, "[7]": {"details": "female, po, 63 mg/kg, Group 5 PO 63 mg/kg repeated, Day 1, Female"}, "[8]": {"details": "female, po, 63 mg/kg, Group 5 PO 63 mg/kg repeated, Day 7, Female"}, "[9]": {"details": "female, po, 189 mg/kg, Group 4 PO 189 mg/kg single, Female"}, "[10]": {"details": "male, iv, 2 mg/kg, Group 1 IV 2.0 mg/kg single, Male"}, "[11]": {"details": "male, po, 21 mg/kg, Group 2 PO 21 mg/kg single, Male"}, "[12]": {"details": "male, po, 63 mg/kg, Group 3 PO 63 mg/kg single, Male"}, "[13]": {"details": "male, po, 63 mg/kg, Group 5 PO 63 mg/kg repeated, Day 1, Male"}, "[14]": {"details": "male, po, 63 mg/kg, Group 5 PO 63 mg/kg repeated, Day 7, Male"}, "[15]": {"details": "male, po, 189 mg/kg, Group 4 PO 189 mg/kg single, Male"}},
  "note": "Where two headings read alike, the source gives them in different places.",
  "data": [
    {"smiles": "CC(=O)O.Nc1nc(NCCc2ccc(NC3COC3)cc2)nc2nc(-c3ccco3)nn12", "note": "[Acetate of Compound 22, 2-(furan-2-yl)-N5-(4-(oxetane-3-ylamino)phenethyl)-[1,2,4]triazolo[1,5-a][1,3,5]triazine-5,7-diamine acetate]", "values": [
      {"measurement": "half-life", "setting": "[1]", "value": "3.33 ± 1.68", "unit": "h"},
      {"measurement": "Tmax", "setting": "[1]", "value": 2, "unit": "h"},
      {"measurement": "AUC(0-t)", "setting": "[2]", "value": "127 ± 40.7", "unit": "µg·h/mL"},
      {"measurement": "Cmax", "setting": "[2]", "value": "38300 ± 8840", "unit": "ng/mL"},
      {"measurement": "half-life", "setting": "[2]", "value": "3.21 ± 0.615", "unit": "h"},
      {"measurement": "Tmax", "setting": "[2]", "value": 1, "unit": "h"},
      {"measurement": "AUC(0-t)", "setting": "[3]", "value": "241 ± 39.1", "unit": "µg·h/mL"},
      {"measurement": "Cmax", "setting": "[3]", "value": "51800 ± 11800", "unit": "ng/mL"},
      {"measurement": "half-life", "setting": "[3]", "value": "5.26 ± 3.05", "unit": "h"},
      {"measurement": "Tmax", "setting": "[3]", "value": 2, "unit": "h"},
      {"measurement": "AUC(0-t)", "setting": "[4]", "value": "5.85 ± 0.149", "unit": "µg·h/mL"},
      {"measurement": "half-life", "setting": "[4]", "value": "4.7 ± 3.22", "unit": "h"},
      {"measurement": "AUC(0-t)", "setting": "[5]", "value": "43.5 ± 4.15", "unit": "µg·h/mL"},
      {"measurement": "Cmax", "setting": "[5]", "value": "20100 ± 3860", "unit": "ng/mL"},
      {"measurement": "half-life", "setting": "[5]", "value": "3.73 ± 0.771", "unit": "h"},
      {"measurement": "Tmax", "setting": "[5]", "value": 0.5, "unit": "h"},
      {"measurement": "AUC(0-t)", "setting": "[6]", "value": "137 ± 40.4", "unit": "µg·h/mL"},
      {"measurement": "Cmax", "setting": "[6]", "value": "30500 ± 9710", "unit": "ng/mL"},
      {"measurement": "half-life", "setting": "[6]", "value": "2.91 ± 0.949", "unit": "h"},
      {"measurement": "Tmax", "setting": "[6]", "value": 1, "unit": "h"},
      {"measurement": "AUC(0-t)", "setting": "[7]", "value": "142 ± 23.1", "unit": "µg·h/mL"},
      {"measurement": "Cmax", "setting": "[7]", "value": "37700 ± 2380", "unit": "ng/mL"},
      {"measurement": "half-life", "setting": "[7]", "value": "2.4 ± 0.523", "unit": "h"},
      {"measurement": "Tmax", "setting": "[7]", "value": 2, "unit": "h"},
      {"measurement": "AUC(0-t)", "setting": "[8]", "value": "157 ± 36.9", "unit": "µg·h/mL"},
      {"measurement": "Cmax", "setting": "[8]", "value": "45600 ± 1550", "unit": "ng/mL"},
      {"measurement": "half-life", "setting": "[8]", "value": "2.73 ± 0.359", "unit": "h"},
      {"measurement": "Tmax", "setting": "[8]", "value": 1, "unit": "h"},
      {"measurement": "AUC(0-t)", "setting": "[9]", "value": "248 ± 55.6", "unit": "µg·h/mL"},
      {"measurement": "Cmax", "setting": "[9]", "value": "59600 ± 12100", "unit": "ng/mL"},
      {"measurement": "half-life", "setting": "[9]", "value": 7.63, "unit": "h"},
      {"measurement": "Tmax", "setting": "[9]", "value": 1, "unit": "h"},
      {"measurement": "AUC(0-t)", "setting": "[10]", "value": "4.87 ± 0.601", "unit": "µg·h/mL"},
      {"measurement": "half-life", "setting": "[10]", "value": 1.43, "unit": "h"},
      {"measurement": "AUC(0-t)", "setting": "[11]", "value": "42 ± 10.5", "unit": "µg·h/mL"},
      {"measurement": "Cmax", "setting": "[11]", "value": "16600 ± 4100", "unit": "ng/mL"},
      {"measurement": "half-life", "setting": "[11]", "value": "3.21 ± 0.304", "unit": "h"},
      {"measurement": "Tmax", "setting": "[11]", "value": 0.5, "unit": "h"},
      {"measurement": "AUC(0-t)", "setting": "[12]", "value": "87.3 ± 3.04", "unit": "µg·h/mL"},
      {"measurement": "Cmax", "setting": "[12]", "value": "24200 ± 2340", "unit": "ng/mL"},
      {"measurement": "half-life", "setting": "[12]", "value": "3.1 ± 0.251", "unit": "h"},
      {"measurement": "Tmax", "setting": "[12]", "value": 1, "unit": "h"},
      {"measurement": "AUC(0-t)", "setting": "[13]", "value": "79.7 ± 31.5", "unit": "µg·h/mL"},
      {"measurement": "Cmax", "setting": "[13]", "value": "19900 ± 9080", "unit": "ng/mL"},
      {"measurement": "half-life", "setting": "[13]", "value": "4.26 ± 2.04", "unit": "h"},
      {"measurement": "Tmax", "setting": "[13]", "value": 1, "unit": "h"},
      {"measurement": "AUC(0-t)", "setting": "[14]", "value": "98.1 ± 14.7", "unit": "µg·h/mL"},
      {"measurement": "Cmax", "setting": "[14]", "value": "31000 ± 5750", "unit": "ng/mL"},
      {"measurement": "half-life", "setting": "[14]", "value": "3.69 ± 0.342", "unit": "h"},
      {"measurement": "Tmax", "setting": "[14]", "value": 1, "unit": "h"},
      {"measurement": "AUC(0-t)", "setting": "[15]", "value": "235 ± 24.3", "unit": "µg·h/mL"},
      {"measurement": "Cmax", "setting": "[15]", "value": "44100 ± 4710", "unit": "ng/mL"},
      {"measurement": "half-life", "setting": "[15]", "value": "3.68 ± 1.22", "unit": "h"},
      {"measurement": "Tmax", "setting": "[15]", "value": 4, "unit": "h"}
    ]}
  ]
}
